Measured values published in patent US12655174B2, “Adenosine A3 receptor agonists, preparation methods and uses thereof” (ZHEJIANG VIMGREEN PHARMACEUTICALS, LTD., priority 2020, dated 2026).

Legend:
ADORA3 receptor = biological target: T1, ADORA3 receptor (Homo sapiens, UniProt P0DMS8); assay: Agonistic effect on adenosine A3 receptor by FLIPR assay (calcium flux assay); format: cell-based; conditions: agonist mode
T1 sequence (P0DMS8 1-318): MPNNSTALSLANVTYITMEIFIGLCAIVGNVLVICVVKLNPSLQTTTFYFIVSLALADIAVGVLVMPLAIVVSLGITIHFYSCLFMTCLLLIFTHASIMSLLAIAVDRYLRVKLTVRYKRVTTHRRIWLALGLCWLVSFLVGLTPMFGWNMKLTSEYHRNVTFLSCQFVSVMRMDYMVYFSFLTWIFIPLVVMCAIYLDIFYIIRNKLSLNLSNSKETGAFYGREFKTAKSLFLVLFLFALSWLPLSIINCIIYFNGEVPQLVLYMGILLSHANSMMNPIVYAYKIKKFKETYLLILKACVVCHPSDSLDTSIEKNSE
Protocol: Example 27: Agonistic Effect of Compound on Adenosine A3 Receptor by FLIPR Assay (Calcium Flux Assay)
First Day: Cell Inoculation
• 1) With regard to ADORA3 receptor, cultured cells were used for inoculation: the culture medium was aspirated and the cells were washed twice with 10 mL of DPBS. 2 mL of 0.05% EDTA-trypsin was added and the cells were incubated at 37° C. for 1 minute. Then 10 mL of the culture medium was added to stop the digestion and the cell suspension was transferred to a 50-mL tapered tube. • 2) The 50-mL tapered tube containing the various cells was centrifuged at 300 g for 5 minutes. • 3) A supernatant was aspirated and no cells should be aspirated. • 4) The cell precipitate was resuspended in 6-8 mL of the culture medium, and then 0.5 mL of the cells were taken out for cell counting by using a Vi-cell XR cell viability analyzer. • 5) The cell suspension was diluted to 1×10^6 cells/mL (20 μL of 20,000 cells per well) in the culture medium and the cells were inoculated into a cell plate (384-well Poly-D-lysine protein-coated plate, Greiner-781946). • 6) The plate was placed in a 37° C./5% CO2 incubator for 16-20 hours. Second Day: • 1) Preparation of 2×Fluo-4 Direct™ uptaking dye • a. Preparation of probenecid solution • 1 mL of FLIPR assay buffer was added to 77 mg of probenecid (provided by Fluo-4 Direct™ calcium assay kit) to be prepared into 250 mM of a probenecid solution. The fresh probenecid solution was used daily. • b. 2×(8 μM) Fluo-4 Direct™ loading dye (per 10 mL)
A vial of the Fluo-4 Direct™ crystal was thawed and then 10 mL of the FLTPR analytical buffer was added to the vial. Then 0.2 mL of 250 mM of a probe solution was added to every 10 mL Fluo-4 Direct™ crystal to a final assay concentration of 2.5 mM. The solution was vortexed and stood for >5 min at a dark place. 2×Fluo-4 Direct™ uptaking dye was freshly prepared daily. • 2) Compound preparation • a. Preparation of compound plate: all reference and test compounds were serially diluted 4-fold in 10 points by using an Echo liquid processor and then 900 nL of the diluted compounds were transferred to a compound plate. • b. 30 μL FLIPR analytical buffer was added to the compound plate and the plate was centrifuged at 300 g for 1 minute. • 3) FLIPR analysis • a. With regard to ADORA3 receptor: firstly, the cell plate was taken out from a culture box. The culture medium was then aspirated and 20 μL of the FLIPR analytical buffer was added. The cell plate was placed in an incubator for 45 minutes and at a room temperature for 15 minutes. • b. To run an experimental solution on […], 10 μL of the FLIPR analytical buffer was transferred from the compound plate to a cell plate, and then the fluorescent signal was read. Then 10 μL of a compound solution was transferred from the compound plate to the cell plate and the fluorescence signal was read. “Max−min” was calculated from Reader 91 to an allowed maximum value. • c. With regard to agonist: activation %=(RLU−LC)/(HC−LC)*100, • wherein RLU=relative light unit, allowed maximum signal was 91; HC=average signal of high concentration agonist; and LC=mean signal of DMSO well. • d. Data were fitted to a model “log (agonist) versus response-variable slope” by using GraphPad Prism 5 to determine an EC50 value. • e. […] 2. Test Result

[1] = Pharmacokinetic test of compound in SD rat; format: in vivo; conditions: SD rats, intragastric administration (IG), cassette dosing
Protocol: Example 28: Pharmacokinetic Test of Compound in SD Rat
The animal species used in this experiment were SD rats. There were 3 animals per group. The rats were dosed in cassette format, i.e., multiple (1-6) different compounds were dosed simultaneously to the same group of the SD rats. The vehicle used for the drug was 5% DMSO+5% Solutl+90% ([…] methylcellulose M450), and the administration route was intragastric administration (IG).

Row | EC50 (ADORA3 receptor) [µM] | AUC_D [1] [kg·ng·h/mL/mg] | Structure (SMILES)
1 | 0.0129 | 2349.41 | CNC(=O)[C@H]1OC(n2cnc3c(NCc4cc(C)cc(C)c4)nc(-c4cccnc4)nc32)[C@H](O)[C@@H]1O (stereo in doubt) [compound 297, (2S,3S,4R,5S)-5-(6-((3,5-dimethylbenzyl)amino)-2-(pyridin-3-yl)-9H-purin-9-yl)-3,4-dihydroxyl-N-methyltetrahydrofuran-2-carboxamide]
2 | 0.037 | 4423.94 | CNC(=O)[C@H]1OC(n2cnc3c(NCc4cc(C)cc(C)c4)nc(-c4cncc(OC)c4)nc32)[C@H](O)[C@@H]1O (stereo in doubt) [compound 298, (2S,3S,4R,5S)-5-(6-((3,5-dimethylbenzyl)amino)-2-(5-methoxypyridin-3-yl)-9H-purin-9-yl)-3,4-dihydroxyl-N-methyltetrahydrofuran-2-carboxamide]
3 | 0.0127 | – | CCNC(=O)[C@H]1O[C@@H](n2cnc3c(NC)nc(-c4cccnc4)nc32)[C@H](O)[C@@H]1O [compound 42, (2S,3S,4R,5R)-N-ethyl-3,4-dihydroxyl-5-(6-(methylamino)-2-(pyridin-3-yl)-9H-purin-9-yl)-tetrahydrofuran-2-formamide]
4 | 0.0114 | 87.99 | CCNC(=O)[C@H]1O[C@@H](n2cnc3c(NC)nc(-c4cncc(F)c4)nc32)[C@H](O)[C@@H]1O [compound 43, (2S,3S,4R,5R)-N-ethyl-5-(2-(5-fluoropyridin-3-yl)-6-(methylamino)-9H-purin-9-yl)-3,4-dihydroxyl-tetrahydrofuran-2-formamide]
5 | 0.0206 | 75.08 | CCNC(=O)[C@H]1O[C@@H](n2cnc3c(NC)nc(-c4cncc(C)c4)nc32)[C@H](O)[C@@H]1O [compound 72, (2S,3S,4R,5R)-N-ethyl-3,4-dihydroxyl-5-(6-(methylamino)-2-(5-methylpyridin-3-yl)-9H-purin-9-yl)tetrahydrofuran-2-carboxamide]
6 | 0.0296 | – | CCNC(=O)[C@H]1O[C@@H](n2cnc3c(NC)nc(-c4cncc(OC)c4)nc32)[C@H](O)[C@@H]1O [compound 73, (2S,3S,4R,5R)-N-ethyl-3,4-dihydroxyl-5-(2-(5-methoxypyridin-3-yl)-6-(methylamino)-9H-purin-9-yl)tetrahydrofuran-2-carboxamide]
7 | 0.0252 | – | CCNC(=O)[C@H]1O[C@@H](n2cnc3c(NC)nc(-c4cncc(Cl)c4)nc32)[C@H](O)[C@@H]1O [compound 90, (2S,3S,4R,5R)-5-(2-(5-chloropyridin-3-yl)-6-(methylamino)-9H-purin-9-yl)-N-ethyl-3,4-dihydroxyltetrahydrofuran-2-carboxamide]
8 | 0.00906 | 2205.59 | CNC(=O)[C@H]1O[C@@H](n2cnc3c(NCc4cc(C)ccn4)nc(-c4cncc(C)c4)nc32)[C@H](O)[C@@H]1O [compound 190, (2S,3S,4R,5R)-3,4-dihydroxyl-N-methyl-5-(6-((4-methylpyridin-2-yl)methylamino)-2-(5-methylpyridin-3-yl)-9H-purin-9-yl)-tetrahydrofuran-2-formamide]
9 | 0.00529 | 1183.39 | CNC(=O)[C@H]1O[C@@H](n2cnc3c(NCc4cc(C)ccc4F)nc(-c4cccnc4)nc32)[C@H](O)[C@@H]1O [compound 191, (2S,3S,4R,5R)-5-(6-(2-fluoro-5-methylbenzylamino)-2-(pyridin-3-yl)-9H-purin-9-yl)-3,4-dihydroxyl-N-methyl-tetrahydrofuran-2-formamide]
10 | 0.00924 | 3329.08 | CNC(=O)[C@H]1O[C@@H](n2cnc3c(NCc4cc(C)ccc4F)nc(-c4cncc(F)c4)nc32)[C@H](O)[C@@H]1O [compound 192, (2S,3S,4R,5R)-5-(6-(2-fluoro-5-methylbenzylamino)-2-(5-fluoropyridin-3-yl)-9H-purin-9-yl)-3,4-dihydroxyl-N-methyl-tetrahydrofuran-2-formamide]
11 | 0.0109 | 2969.40 | CNC(=O)[C@H]1O[C@@H](n2cnc3c(NCc4cc(C)ccc4F)nc(-c4cncc(C)c4)nc32)[C@H](O)[C@@H]1O [compound 193, (2S,3S,4R,5R)-5-(6-(2-fluoro-5-methylbenzylamino)-2-(5-methylpyridin-3-yl)-9H-purin-9-yl)-3,4-dihydroxyl-N-methyl-tetrahydrofuran-2-formamide]
12 | 0.0107 | 2043.13 | CNC(=O)[C@H]1O[C@@H](n2cnc3c(NCc4cc(C)ccc4F)nc(-c4cncc(OC)c4)nc32)[C@H](O)[C@@H]1O [compound 194, (2S,3S,4R,5R)-5-(6-(2-fluoro-5-methylbenzylamino)-2-(5-methoxypyridin-3-yl)-9H-purin-9-yl)-3,4-dihydroxyl-N-methyl-tetrahydrofuran-2-formamide]
13 | 0.00353 | 233.07 | CNC(=O)[C@H]1O[C@@H](n2cnc3c(NCc4cccc(Cl)n4)nc(-c4cncc(F)c4)nc32)[C@H](O)[C@@H]1O [compound 227, (2S,3S,4R,5R)-5-(6-(((6-chloropyridin-2-yl)methyl)amino)-2-(5-fluoropyridin-3-yl)-9H-purin-9-yl)-3,4-dihydroxyl-N-methyltetrahydrofuran-2-carboxamide]
14 | 0.0112 | 17240.04 | CNC(=O)[C@H]1O[C@@H](n2cnc3c(NCc4cc(C)cc(C)c4)nc(-c4cncc(C)c4)nc32)[C@H](O)[C@@H]1O [compound 231, (2S,3S,4R,5R)-5-(6-((3,5-dimethylbenzyl)amino)-2-(5-methylpyridin-3-yl)-9H-purin-9-yl)-3,4-dihydroxyl-N-methyltetrahydrofuran-2-carboxamide]
